Results from article PMC8398766, “Do Small Molecules Activate the TrkB Receptor in the Same Manner as BDNF? Limitations of Published TrkB Low Molecular Agonists and Screening for Novel TrkB Orthosteric Agonists” (Pharmaceuticals, 2021).
“Also recorded” adds a separate entry of the source.

How the values were obtained:
in vitro [1] = details: human, Caco-2
in vitro [2] = details: human, microsomes
MMP-2 = molecular target: T1, MMP-2 (Homo sapiens, UniProt P08253); assay: BioPrint Profile Panel; type: biochemical; details: Non-Kinase Enzyme
T1 construct: purchased Eurofins Discovery (Cerep) BioPrint Profile Panel
From the text: (§1) The BioPrint® Profile Panel service offered by Eurofins Discovery (Poitiers, France) was chosen to perform selectivity analysis.

ACE-2 = molecular target: T2, ACE-2 (Homo sapiens, UniProt Q9BYF1); assay: BioPrint Profile Panel; type: biochemical; details: Non-Kinase Enzyme, read-out: % of specific inhibition
T2 construct: purchased Eurofins Discovery (Cerep) BioPrint Profile Panel
From the text: as §1

CaMK2α = molecular target: T3, CaMK2α (Homo sapiens, UniProt Q9UQM7); assay: BioPrint Profile Panel; type: biochemical; details: Kinase, read-out: % of specific inhibition
T3 construct: purchased Eurofins Discovery (Cerep) BioPrint Profile Panel
From the text: as §1

inducible NOS = assay: BioPrint Profile Panel; type: biochemical; details: 10 μM; Non-Kinase Enzyme
From the text: as §1

p38α kinase = molecular target: T4, p38α kinase (Homo sapiens, UniProt Q16539); assay: BioPrint Profile Panel; type: biochemical; details: read-out: % of specific inhibition
T4 construct: purchased Eurofins Discovery (Cerep) BioPrint Profile Panel
From the text: as §1

Guanylyl cyclase = assay: BioPrint Profile Panel; type: biochemical; details: 10 μM; Activator effect
From the text: as §1

COX1 = molecular target: T5, COX1 (Homo sapiens, UniProt P23219); assay: BioPrint Profile Panel; type: biochemical; details: Non-Kinase Enzyme, read-out: % of specific inhibition
T5 construct: purchased Eurofins Discovery (Cerep) BioPrint Profile Panel
From the text: as §1

Fyn kinase = molecular target: T6, Fyn kinase (Homo sapiens, UniProt P06241); assay: BioPrint Profile Panel; type: biochemical; details: read-out: % of specific inhibition
T6 construct: purchased Eurofins Discovery (Cerep) BioPrint Profile Panel
From the text: as §1

PDE3B = molecular target: T7, PDE3B (Homo sapiens, UniProt Q13370); assay: BioPrint Profile Panel; type: biochemical; details: Non-Kinase Enzyme, read-out: % of specific inhibition
T7 construct: purchased Eurofins Discovery (Cerep) BioPrint Profile Panel
From the text: as §1

PDE5 = molecular target: T8, PDE5 (Homo sapiens, UniProt O76074); assay: BioPrint Profile Panel; type: biochemical; details: Non-Kinase Enzyme, read-out: % of specific inhibition
T8 construct: purchased Eurofins Discovery (Cerep) BioPrint Profile Panel
From the text: as §1

PDE4D2 = molecular target: T9, PDE4D2 (Homo sapiens, UniProt Q08499); assay: BioPrint Profile Panel; type: biochemical; details: Non-Kinase Enzyme, read-out: % of specific inhibition
T9 construct: purchased Eurofins Discovery (Cerep) BioPrint Profile Panel
From the text: as §1

CDK2 = molecular target: T10, CDK2 (Homo sapiens, UniProt P24941); assay: BioPrint Profile Panel; type: biochemical; details: Kinase, read-out: % of specific inhibition
T10 construct: purchased Eurofins Discovery (Cerep) BioPrint Profile Panel
From the text: as §1

COX2 = molecular target: T11, COX2 (Homo sapiens, UniProt P35354); assay: BioPrint Profile Panel; type: biochemical; details: Non-Kinase Enzyme
T11 construct: purchased Eurofins Discovery (Cerep) BioPrint Profile Panel
From the text: as §1

MMP-1 = molecular target: T12, MMP-1 (Homo sapiens, UniProt P03956); assay: BioPrint Profile Panel; type: biochemical; details: Non-Kinase Enzyme, read-out: % of specific inhibition
T12 construct: purchased Eurofins Discovery (Cerep) BioPrint Profile Panel
From the text: as §1

IRK = molecular target: T13, IRK (Homo sapiens, UniProt P06213); assay: BioPrint Profile Panel; type: biochemical; details: Kinase, read-out: % of specific inhibition
T13 construct: purchased Eurofins Discovery (Cerep) BioPrint Profile Panel
From the text: as §1

ACE = molecular target: T14, ACE (Homo sapiens, UniProt P12821); assay: BioPrint Profile Panel; type: biochemical; details: Non-Kinase Enzyme, read-out: % of specific inhibition
T14 construct: purchased Eurofins Discovery (Cerep) BioPrint Profile Panel
From the text: as §1

BACE-1 = molecular target: T15, BACE-1 (Homo sapiens, UniProt P56817); assay: BioPrint Profile Panel; type: biochemical; details: Non-Kinase Enzyme, read-out: % of specific inhibition
T15 construct: purchased Eurofins Discovery (Cerep) BioPrint Profile Panel
From the text: as §1

[3] = molecular target: T16, Xanthine oxidase/ superoxide O2-scavenging (Bos taurus, UniProt P80457); assay: BioPrint Profile Panel; type: biochemical; details: Non-Kinase Enzyme
T16 construct: purchased Eurofins Discovery (Cerep) BioPrint Profile Panel
From the text: as §1

PDE6 = assay: BioPrint Profile Panel; type: biochemical; details: 10 μM; Non-Kinase Enzyme
From the text: as §1

MMP-9 = molecular target: T17, MMP-9 (Homo sapiens, UniProt P14780); assay: BioPrint Profile Panel; type: biochemical; details: Non-Kinase Enzyme, read-out: % Inhibition of Control Specific Binding
T17 construct: purchased Eurofins Discovery (Cerep) BioPrint Profile Panel
From the text: as §1

caspase-3 = molecular target: T18, caspase-3 (Homo sapiens, UniProt P42574); assay: BioPrint Profile Panel; type: biochemical; details: Non-Kinase Enzyme, read-out: % of specific inhibition
T18 construct: purchased Eurofins Discovery (Cerep) BioPrint Profile Panel
From the text: as §1

ZAP70 kinase = molecular target: T19, ZAP70 kinase (Homo sapiens, UniProt P43403); assay: BioPrint Profile Panel; type: biochemical; details: read-out: % of specific inhibition
T19 construct: purchased Eurofins Discovery (Cerep) BioPrint Profile Panel
From the text: as §1

TrkB receptor = molecular target: T20, TrkB receptor (Rattus norvegicus, UniProt Q63604); assay: ELFI TrkB phosphorylation, orthosteric agonist mode, SN56 T48 cell line; type: cell-based; details: 0.125–100 μM, 15 min
T20 construct: host or cells: SN56 T48 cell line
Experimental: The SN56 T48 cell line with stable overexpression of the TrkB receptor was purchased from Emory University (Atlanta, GA, USA) and cultivated according to the protocol described in Jang et al., 2010 [12]. The cell lines were cultivated with the following reagents: DMEM High Glucose, fetal bovine serum (FBS), Penicillin-Streptomycin Solution 100×, and Trypsin-EDTA 1×; all were purchased from Biowest, and G418 was from ThermoFisher Scientific. For the ELFI experiments, cells were seeded (8000/well) on a PDL-treated 96-well plate (BioCoat™, Corning Inc., Corning, NY, USA) and 6-well plate (400,000/well) for lysate collection and immunoblot analysis.
In the orthosteric agonist mode experiments, starved cells (5 h) were treated with compounds (0.125–100 μM; volume, 100 μL/well) or BDNF (0.01–10 nM; volume, 100 μL/well) dissolved in culture medium. In the allosteric modulation mode experiments, starved cells (5 h) were treated with final compound concentrations of 3, 10, and 30 μM; volume, 50 μL/well) in the presence of a rising concentration of BDNF (final concentration in well, 0.15–5 nM; volume, 50 μL/well). Corresponding treatment with DMSO (v/v) was performed for a control. Cells were treated for 15 min in both the orthosteric and allosteric modulation mode experiments.
The analysis of TrkB receptor activation was performed using the ELFI method adapted from Boltayev et al. (2017) with some modifications. After compound treatment, experiments were stopped by fixing cells with 10% buffered formalin (Kolchem, Lodz, Poland) for 20 min (volume, 100 μL/well). Afterwards, cells were permeabilized with washing buffer (TBS+ 0.1% Tween20) for 15 min, and endogenous peroxidases were quenched by 20 min of incubation with 1% H2O2 dissolved in TBS (each solution: volume, 100 μL/well). Epitopes were blocked with 10% BSA (Biowest) dissolved in washing buffer for 2 h (volume, 100 μL/well) and incubated with anti-pTrkB (Tyr707) primary antibody (Cell Signaling Technology, Danvers, MA, USA) diluted in washing buffer (1:500; overnight at 4 °C; volume, 100 μL/well). After repeated washing, cells were incubated with HRP-linked anti-rabbit antibody (Cell Signaling Technology) for 2 h (1:1000; RT; volume, 100 μL/well) and washed. The cells were then incubated with 100 μL of ImmunoCruz™ Western Blotting Luminol (Santa Cruz Biotechnology, Dallas, TX, USA) for 1 min in the dark, and the signals were measured using a microplate luminometer (VICTOR Light 1420-060, PerkinElmer®, Waltham, MA, USA). For non-specific binding, cells were treated, with the exception of primary antibody.

in vitro [4] = details: PAMPA, pH 7.4
[5] = read-out: % Inhibition of Control Specific Binding

T16 sequence (P80457 whole entry): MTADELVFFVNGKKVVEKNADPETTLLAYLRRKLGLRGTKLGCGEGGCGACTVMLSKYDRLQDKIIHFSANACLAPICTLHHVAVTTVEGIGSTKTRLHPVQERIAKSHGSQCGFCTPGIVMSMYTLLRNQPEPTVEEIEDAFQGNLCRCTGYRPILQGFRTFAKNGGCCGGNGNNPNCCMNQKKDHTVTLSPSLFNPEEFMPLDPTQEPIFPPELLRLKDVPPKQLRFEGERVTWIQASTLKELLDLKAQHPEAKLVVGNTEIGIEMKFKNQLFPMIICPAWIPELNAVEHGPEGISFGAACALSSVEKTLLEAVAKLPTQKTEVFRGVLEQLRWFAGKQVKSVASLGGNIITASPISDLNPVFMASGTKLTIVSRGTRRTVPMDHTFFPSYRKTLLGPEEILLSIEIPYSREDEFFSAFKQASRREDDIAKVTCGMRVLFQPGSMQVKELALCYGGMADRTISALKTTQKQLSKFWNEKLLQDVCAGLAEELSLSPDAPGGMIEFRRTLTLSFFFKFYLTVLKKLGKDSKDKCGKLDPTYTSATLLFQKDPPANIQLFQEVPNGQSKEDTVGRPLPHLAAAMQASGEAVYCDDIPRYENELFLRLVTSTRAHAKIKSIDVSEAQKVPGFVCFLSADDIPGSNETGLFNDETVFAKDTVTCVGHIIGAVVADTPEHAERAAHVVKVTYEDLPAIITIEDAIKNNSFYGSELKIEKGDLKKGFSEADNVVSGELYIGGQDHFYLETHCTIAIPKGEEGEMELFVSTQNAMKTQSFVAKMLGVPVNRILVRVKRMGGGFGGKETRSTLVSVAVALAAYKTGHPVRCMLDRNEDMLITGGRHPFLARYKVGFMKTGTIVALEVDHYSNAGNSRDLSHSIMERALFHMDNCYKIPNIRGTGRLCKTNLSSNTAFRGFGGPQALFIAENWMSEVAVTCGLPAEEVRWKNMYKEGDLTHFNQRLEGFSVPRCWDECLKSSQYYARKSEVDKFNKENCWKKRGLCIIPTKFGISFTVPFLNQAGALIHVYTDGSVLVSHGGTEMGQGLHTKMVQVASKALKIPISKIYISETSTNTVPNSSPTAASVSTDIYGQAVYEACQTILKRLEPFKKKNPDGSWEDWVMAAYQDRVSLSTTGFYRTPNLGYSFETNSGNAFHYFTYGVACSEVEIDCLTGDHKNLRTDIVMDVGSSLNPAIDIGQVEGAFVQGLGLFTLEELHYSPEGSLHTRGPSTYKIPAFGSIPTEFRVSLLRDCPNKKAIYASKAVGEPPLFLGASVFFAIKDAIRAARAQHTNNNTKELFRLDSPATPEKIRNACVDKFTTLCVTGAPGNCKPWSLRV
T11 sequence (P35354 18-604): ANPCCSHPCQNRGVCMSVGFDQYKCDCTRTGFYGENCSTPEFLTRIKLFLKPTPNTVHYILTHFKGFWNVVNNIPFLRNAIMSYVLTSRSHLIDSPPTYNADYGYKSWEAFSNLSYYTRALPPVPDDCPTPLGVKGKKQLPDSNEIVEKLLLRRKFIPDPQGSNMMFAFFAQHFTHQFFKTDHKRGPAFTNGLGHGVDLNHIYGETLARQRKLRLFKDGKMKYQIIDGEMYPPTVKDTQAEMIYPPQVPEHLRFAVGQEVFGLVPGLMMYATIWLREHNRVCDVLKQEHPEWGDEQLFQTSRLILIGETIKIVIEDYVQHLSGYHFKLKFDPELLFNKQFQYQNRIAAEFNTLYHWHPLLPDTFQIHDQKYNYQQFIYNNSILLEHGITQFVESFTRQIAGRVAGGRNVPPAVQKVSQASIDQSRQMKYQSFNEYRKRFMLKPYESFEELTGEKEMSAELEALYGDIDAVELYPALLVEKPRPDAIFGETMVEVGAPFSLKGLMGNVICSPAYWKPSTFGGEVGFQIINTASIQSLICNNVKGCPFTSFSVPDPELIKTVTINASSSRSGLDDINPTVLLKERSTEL
T20 sequence (Q63604 32-821): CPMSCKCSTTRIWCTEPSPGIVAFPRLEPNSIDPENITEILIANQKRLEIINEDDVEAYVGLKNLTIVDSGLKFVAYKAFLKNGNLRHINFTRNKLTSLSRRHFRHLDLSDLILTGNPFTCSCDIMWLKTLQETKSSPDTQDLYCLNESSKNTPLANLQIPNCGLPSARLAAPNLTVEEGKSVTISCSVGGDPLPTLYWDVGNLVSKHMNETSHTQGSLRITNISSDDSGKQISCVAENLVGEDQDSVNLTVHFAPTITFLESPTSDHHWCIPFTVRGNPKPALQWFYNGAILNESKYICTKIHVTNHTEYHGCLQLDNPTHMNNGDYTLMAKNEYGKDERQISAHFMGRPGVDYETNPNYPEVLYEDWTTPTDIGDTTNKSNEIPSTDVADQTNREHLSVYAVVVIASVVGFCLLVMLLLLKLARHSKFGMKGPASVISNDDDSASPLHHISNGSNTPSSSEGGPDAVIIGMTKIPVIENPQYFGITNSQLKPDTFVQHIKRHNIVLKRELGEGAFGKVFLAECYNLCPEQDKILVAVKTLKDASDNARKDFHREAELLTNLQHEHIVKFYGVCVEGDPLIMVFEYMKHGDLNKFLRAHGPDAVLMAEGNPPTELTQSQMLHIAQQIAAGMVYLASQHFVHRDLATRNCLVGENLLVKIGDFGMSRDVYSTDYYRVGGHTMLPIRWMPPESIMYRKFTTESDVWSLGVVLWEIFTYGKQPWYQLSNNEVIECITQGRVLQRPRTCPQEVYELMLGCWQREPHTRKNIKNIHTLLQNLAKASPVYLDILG
T1 sequence (P08253 110-660): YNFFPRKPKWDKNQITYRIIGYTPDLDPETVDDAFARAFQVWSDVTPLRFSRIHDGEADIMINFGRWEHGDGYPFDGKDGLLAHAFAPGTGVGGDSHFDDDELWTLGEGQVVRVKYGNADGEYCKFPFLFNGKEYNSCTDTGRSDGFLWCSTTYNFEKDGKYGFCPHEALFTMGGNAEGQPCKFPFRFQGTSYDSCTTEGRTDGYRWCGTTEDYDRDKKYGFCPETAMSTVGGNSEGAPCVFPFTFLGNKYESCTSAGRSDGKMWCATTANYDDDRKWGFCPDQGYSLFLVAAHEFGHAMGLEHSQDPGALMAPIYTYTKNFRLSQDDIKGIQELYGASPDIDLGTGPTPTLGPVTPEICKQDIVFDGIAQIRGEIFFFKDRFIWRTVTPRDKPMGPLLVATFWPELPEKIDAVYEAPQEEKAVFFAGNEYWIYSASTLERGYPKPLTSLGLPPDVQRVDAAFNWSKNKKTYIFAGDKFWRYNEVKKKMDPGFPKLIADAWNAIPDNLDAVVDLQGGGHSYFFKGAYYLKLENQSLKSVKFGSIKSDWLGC
T19 sequence (P43403 whole entry): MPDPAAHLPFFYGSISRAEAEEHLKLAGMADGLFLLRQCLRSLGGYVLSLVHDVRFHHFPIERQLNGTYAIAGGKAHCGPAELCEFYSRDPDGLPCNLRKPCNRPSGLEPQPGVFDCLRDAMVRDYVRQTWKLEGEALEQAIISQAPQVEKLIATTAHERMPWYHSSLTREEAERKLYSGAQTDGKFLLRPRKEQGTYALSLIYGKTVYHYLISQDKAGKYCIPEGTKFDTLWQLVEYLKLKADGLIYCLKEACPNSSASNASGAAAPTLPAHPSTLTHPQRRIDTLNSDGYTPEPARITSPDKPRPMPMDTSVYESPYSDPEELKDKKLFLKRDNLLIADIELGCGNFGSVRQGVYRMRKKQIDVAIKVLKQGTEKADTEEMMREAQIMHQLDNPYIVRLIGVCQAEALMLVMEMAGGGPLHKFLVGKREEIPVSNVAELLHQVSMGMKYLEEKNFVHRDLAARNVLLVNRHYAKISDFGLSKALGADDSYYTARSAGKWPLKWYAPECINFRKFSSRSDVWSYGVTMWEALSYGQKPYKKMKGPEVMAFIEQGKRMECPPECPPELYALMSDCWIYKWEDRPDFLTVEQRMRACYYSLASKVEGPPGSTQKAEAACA
T9 sequence (Q08499 303-809): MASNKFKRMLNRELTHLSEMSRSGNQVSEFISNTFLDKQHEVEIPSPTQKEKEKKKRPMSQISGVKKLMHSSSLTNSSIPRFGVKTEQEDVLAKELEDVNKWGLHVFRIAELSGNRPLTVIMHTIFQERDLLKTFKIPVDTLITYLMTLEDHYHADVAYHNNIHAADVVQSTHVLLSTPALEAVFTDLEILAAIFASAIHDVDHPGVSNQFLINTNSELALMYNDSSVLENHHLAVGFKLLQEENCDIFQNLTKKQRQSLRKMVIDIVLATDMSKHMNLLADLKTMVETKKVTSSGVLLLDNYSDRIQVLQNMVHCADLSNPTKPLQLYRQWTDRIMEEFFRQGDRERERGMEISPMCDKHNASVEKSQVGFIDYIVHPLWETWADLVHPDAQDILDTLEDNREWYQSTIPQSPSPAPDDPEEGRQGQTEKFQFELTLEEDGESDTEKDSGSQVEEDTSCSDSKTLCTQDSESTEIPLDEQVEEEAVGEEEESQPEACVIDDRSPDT
T12 sequence (P03956 100-469): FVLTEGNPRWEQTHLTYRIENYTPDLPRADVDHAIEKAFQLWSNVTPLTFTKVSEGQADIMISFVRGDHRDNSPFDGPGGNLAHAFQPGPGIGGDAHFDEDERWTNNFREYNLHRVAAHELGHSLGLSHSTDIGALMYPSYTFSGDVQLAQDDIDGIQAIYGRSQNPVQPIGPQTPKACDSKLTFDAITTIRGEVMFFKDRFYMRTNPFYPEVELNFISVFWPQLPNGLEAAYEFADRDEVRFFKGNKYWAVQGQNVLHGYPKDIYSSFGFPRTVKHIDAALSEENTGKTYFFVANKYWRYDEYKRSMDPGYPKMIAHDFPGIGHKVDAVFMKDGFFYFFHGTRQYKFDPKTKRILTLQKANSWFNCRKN
T18 sequence (P42574 29-175 limits assumed): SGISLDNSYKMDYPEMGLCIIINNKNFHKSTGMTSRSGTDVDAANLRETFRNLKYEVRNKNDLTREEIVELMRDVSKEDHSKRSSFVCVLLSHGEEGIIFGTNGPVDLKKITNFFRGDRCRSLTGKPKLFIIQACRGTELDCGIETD
T18 sequence (P42574 176-277 limits assumed): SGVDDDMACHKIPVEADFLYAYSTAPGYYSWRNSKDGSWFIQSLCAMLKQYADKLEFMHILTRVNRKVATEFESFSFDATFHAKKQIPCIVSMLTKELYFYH

Work on `O=c1cc(-c2ccccc2)oc2c(O)c(O)ccc12` [7,8-DHF, 7,8-dihydroxyflavone] yielded a Papp A→B at 2 h (in vitro [1]) of 22.8 ×10⁻⁶ cm/s, a Papp B→A at 2 h (in vitro [1]) of 12.4 ×10⁻⁶ cm/s and a microsomal CLint at 1 μM (in vitro [2]) of 52.2 µL/min/mg. For the same compound, the “% Inhibition of Control Specific Binding” value (MMP-2; 10 μM) was 56.5%, the inhibition at 10 µM (MMP-2; [5]) was 56% and the inhibition at 10 µM (ACE-2) was -8%. The inhibition at 10 µM (CaMK2α) was -20%, the “% of specific inhibition” value (inducible NOS) was 3% and the inhibition at 10 µM (p38α kinase) was -50%. For the same compound, the “% of specific inhibition” value (Guanylyl cyclase) was 2%, the inhibition at 10 µM (COX1) was 49% and the inhibition at 10 µM (Fyn kinase) was 21%. The inhibition at 10 µM (PDE3B) was 11%, the inhibition at 10 µM (PDE5) was 48% and the inhibition at 10 µM (PDE4D2) was 38%. For the same compound, the inhibition at 10 µM (CDK2) was 0%, the “% Inhibition of Control Specific Binding” value (COX2; 10 μM) was 81.6% and the inhibition at 10 µM (COX2; [5]) was 82%. It also gave an inhibition at 10 µM (MMP-1) of 10%, an inhibition at 10 µM (IRK) of 12% and an inhibition at 10 µM (ACE) of 5%. The inhibition at 10 µM (BACE-1) was 15%, the “% Inhibition of Control Specific Binding” value ([3]; 10 μM) was 91.5% and the inhibition at 10 µM [3, 5] was 92%. The “% of specific inhibition” value (PDE6) was 30%, the inhibition at 10 µM (MMP-9) was 72% and the inhibition at 10 µM (caspase-3) was 1%. The inhibition at 10 µM (ZAP70 kinase) was 4%, the “Orthosteric activity (induction of TrkB phosphorylation)” value (TrkB receptor) was “failed to show any activity; also recorded: does not occur” and the Papp at 4 h, 10 μM (in vitro [4]) was 15.8 ×10⁻⁶ cm/s.
